Test results reported in patent US20080262097A1, “Formulations” (priority 2005, published 2008).
≈ marks a conversion by molar mass, not a printed value. Like-named read-outs stand apart in the source and are kept apart here.

Tests used:
P. acnes PRP-046 = experiment: MBC assay; format: cell-based, Propionibacterium acnes; details: Cutibacterium acnes, PRP046; P. acnes PRP-046 (resistance None)
Procedure: (§1) The Propionibacterium spp organisms were cultured and maintained on Wilkins-Chalgren Anaerobe Medium (agar and broth) at pH 6.0; cultures were incubated anaerobically at 37° C. for 72 hours.
(§2) This assay, normally carried out after an MIC assay, determines the minimum concentration of a compound that is lethal to the micro-organism being tested.
(§3) These samples were then individually sub-cultured on non-selective agar medium, under the incubation conditions described above. Following incubation they were examined visually for bacterial growth.

P. acnes PRP-059 = experiment: MBC assay; format: cell-based, Propionibacterium acnes; details: Cutibacterium acnes, PRP059; P. acnes PRP-059 (resistance MLS)
Procedure: as §1, §2, §3

P. acnes PRP-101 = experiment: MBC assay; format: cell-based, Propionibacterium acnes; details: Cutibacterium acnes, PRP101; P. acnes PRP-101 (resistance Tet/MLS)
Procedure: as §1, §2, §3

P. acnes PRP-102 = experiment: MBC assay; format: cell-based, Propionibacterium acnes; details: Cutibacterium acnes, PRP102; P. acnes PRP-102 (resistance Tet/MLS)
Procedure: as §1, §2, §3

P. acnes PRP-002 = experiment: MBC assay; format: cell-based, Propionibacterium acnes; details: Cutibacterium acnes, PRP002; P. acnes PRP-002 (resistance Tet/MLS)
Procedure: as §1, §2, §3

P. acnes PRP-023 = experiment: MBC assay; format: cell-based, Propionibacterium acnes; details: Cutibacterium acnes, PRP023; P. acnes PRP-023 (resistance MLSK)
Procedure: as §1, §2, §3

P. acnes PRP-068 = experiment: MBC assay; format: cell-based, Propionibacterium acnes; details: Cutibacterium acnes, PRP068; P. acnes PRP-068 (resistance Ery)
Procedure: as §1, §2, §3

P. acnes PRP-007 = experiment: MBC assay; format: cell-based, Propionibacterium acnes; details: Cutibacterium acnes, PRP007; P. acnes PRP-007 (resistance Clin)
Procedure: as §1, §2, §3

P. acnes PRP-017 = experiment: MBC assay; format: cell-based, Propionibacterium acnes; details: Cutibacterium acnes, PRP017; P. acnes PRP-017 (resistance MLS)
Procedure: as §1, §2, §3

P. acnes PRP-003 = experiment: MBC assay; format: cell-based, Propionibacterium acnes; details: Cutibacterium acnes, PRP003; P. acnes PRP-003 (resistance Tet)
Procedure: as §1, §2, §3

P. acnes PRP-008 = experiment: MBC assay; format: cell-based, Propionibacterium acnes; details: Cutibacterium acnes, PRP008; P. acnes PRP-008 (resistance Clin)
Procedure: as §1, §2, §3

E faecalis ATCC 29212 = experiment: MBC assay; format: cell-based; details: Enterococcus faecalis, ATCC29212
Text: 3. Enterococcus faecalis ATCC 29212—this is a Gram-positive bacterium belonging to the genus Enterococcus. Enterococci have similar properties to streptococci, but differ in their ability to grow on bile-salt containing media such as MacConkey's Agar. Their principal habitat is the mammalian gastrointestinal tract. They cause a number of important infections including endocarditis, urinary tract infections and abscesses. In the context of skin, they are frequently isolated from wound infections. Unlike the streptococci, the enterococci have developed widespread resistance to penicillin. More recently, E. faecalis and E. faecium strains have also developed resistance to the glycopeptide antibiotics such as vancomycin. Vancomycin-Resistant Enterococci (VRE), principally vanA strains of E. faecium, now represent a serious healthcare-acquired infection hazard in the USA, Japan and Western Europe.
(§4) The staphylococci and enterococci were cultured and maintained on Mueller-Hinton Medium (agar and broth) at pH 7.2; they were incubated aerobically at 37° C. for 24 hours.
as §2
These samples were then individually sub-cultured on non-selective agar medium, under the incubation conditions described above. […]

S. aureus CPHL EMRSA 16 = experiment: Disc diffusion assay (DDA); format: cell-based, Staphylococcus aureus; details: zone diameter, 200 μg per disc
Procedure: (§5) Other staphylococcal strains were also tested, as described in Example 5 below. These included certain antibiotic resistant staphylococci, such as the methicillin resistant S. aureus (MRSA) strains EMRSA-15 and EMRSA-16, both available from the Central Public Health Laboratory (CPHL), Colindale, UK. These strains are resistant not only to all beta-lactams but also to a number of other antibiotics in clinical use, making them a serious threat to human health. They are also responsible for the majority (>95%) of hospital-acquired MRSA infections in the UK.
as §4
(§6) A sterile paper disc was impregnated with a sample of the test compound and a minimum of 30 minutes allowed for the solvents to evaporate as far as possible. The disc was then placed on an agar plate onto which the test micro-organism had been inoculated. The plate was then incubated under the conditions described above, following which it was examined visually for signs of bacterial growth. If the test compound had antimicrobial activity, a circular zone of no growth would be obtained around the disc. The diameter of this zone of “inhibition” was measured using a ProtoCOL™ automated zone sizer (Synbiosis, Cambridge, UK). In general, a greater diameter and/or area of the zone of inhibition indicates a greater antimicrobial activity in the relevant test compound, although other factors such as test compound mobility through the agar gel may also influence the result.
(§7) The area of the zone of inhibition was calculated from the measured zone diameter (D) using the formula π(D/2)^2.

S. aureus CPHL EMRSA 15 = experiment: Disc diffusion assay (DDA); format: cell-based, Staphylococcus aureus; details: zone diameter, 200 μg per disc
Procedure: as §5, §4, §6, §7

P. granulosum PRP-055 = experiment: MIC assay; format: cell-based; details: P. granulosum PRP-055 (resistance None)
Procedure: as §1
(§8) This is a standard international method for quantitatively assessing the antimicrobial activity of a compound in a liquid medium. The method used a 96-well microtitre plate, capable of holding about 200 μl of liquid per well. […] The culture media were as described above for the relevant test organisms.
(§9) The wells were inoculated with a liquid suspension of freshly grown micro-organism and incubated under the conditions described above. After incubation, the microtitre plate was examined visually (with the aid of a light box) for cell pellets in and/or opaque wells, which would indicate microbial growth. The MIC value was recorded as the lowest concentration of test compound required to inhibit microbial growth, ie, the lowest concentration for which the liquid in the well remained clear.
(§10) The assays were conducted in duplicate and included both negative (culture medium only) and positive (culture medium, diluting solvent and inoculum) controls.

P. avidum ATCC 25577 = experiment: MIC assay; format: cell-based; details: Cutibacterium avidum, ATCC25577; P. avidum ATCC 25577 (resistance None)
Procedure: as §1, §8, §9, §10

P. granulosum PRP-044 = experiment: MIC assay; format: cell-based; details: P. granulosum PRP-044 (resistance MLS)
Procedure: as §1, §8, §9, §10

Row | Compound | MBC (P. acnes PRP-046) | MBC (P. acnes PRP-059) | MBC (P. acnes PRP-101) | MBC (P. acnes PRP-102) | MBC (P. acnes PRP-002) | MBC (P. acnes PRP-023) | MBC (P. acnes PRP-068) | MBC (P. acnes PRP-007) | MBC (P. acnes PRP-017) | MBC (P. acnes PRP-003) | MBC (P. acnes PRP-008) | MBC (E faecalis ATCC 29212; E faecalis ATCC 29212, read-out: MBC) | DDA (S. aureus CPHL EMRSA 16) | DDA (S. aureus CPHL EMRSA 15) | MIC (P. granulosum PRP-055) | MIC (P. avidum ATCC 25577) | MIC (P. granulosum PRP-044) | MBC (E faecalis ATCC 29212)
1 | O=C(OOC(=O)c1ccccc1)c1ccccc1 [benzoyl peroxide] | 62.5 mg/L (≈ 258 µM) | 125 mg/L (≈ 516 µM) | 31.2 mg/L (≈ 129 µM) | 62.5 mg/L (≈ 258 µM) | 31.2 mg/L (≈ 129 µM) | 62.5 mg/L (≈ 258 µM) | 125 mg/L (≈ 516 µM) | 62.5 mg/L (≈ 258 µM) | 62.5 mg/L (≈ 258 µM) | 31.2 mg/L (≈ 129 µM) | 31.2 mg/L (≈ 129 µM) | > 250 mg/L | 10.80 mm | 10.17 mm | 15.6 mg/L (≈ 64.4 µM) | 31.2 mg/L (≈ 129 µM) | 31.2 mg/L (≈ 129 µM) | 
2 | CC(C)(C)c1cc(O)ccc1O [TBHQ, t-butyl hydroquinone] | 7.8 mg/L (≈ 46.9 µM) | 7.8 mg/L (≈ 46.9 µM) | 7.8 mg/L (≈ 46.9 µM) | 15.6 mg/L (≈ 93.9 µM) | 7.8 mg/L (≈ 46.9 µM) | 7.8 mg/L (≈ 46.9 µM) | 7.8 mg/L (≈ 46.9 µM) | 7.8 mg/L (≈ 46.9 µM) | 7.8 mg/L (≈ 46.9 µM) | 7.8 mg/L (≈ 46.9 µM) | 7.8 mg/L (≈ 46.9 µM) |  | 67.72 mm | 55.14 mm | 3.9 mg/L (≈ 23.5 µM) | 3.9 mg/L (≈ 23.5 µM) | 15.6 mg/L (≈ 93.9 µM) | 31.2 mg/L
